Values quoted from earlier work in patent US20230354835A1, “USE OF LIQUID SMOKE IN CONJUNCTION WITH FOOD GRADE COATINGS TO CONTROL PEST INFESTATIONS” (Mississippi State University, priority 2022, published 2023).

Tested on: Tyrophagus putrescentiae
Conditions: Abbar et al., 2016a; coating on ham cubes 2.5×2.5×2.5 cm^3

CC(O)CO (stereo not shown) [100% propylene glycol, 1,2-propanediol]
Inhibition of mite growth on dry-cured ham cubes (in words): effective at inhibiting mite growth
